Measured values from paper PMC10849753, “Antiproliferative activity of platinum(II) and copper(II) complexes containing novel biquinoxaline ligands” (Metallomics: Integrated Biometal Science, 2024).

Assays:
EtBr-bound CT-DNA = test: Fluorescence quenching of EtBr-pretreated CT-DNA (Stern–Volmer); assay type: binding, calf; parameters: unit not given here; settings: 0 to 160 μM compounds
Protocol: In order to obtain the linear Stern–Volmer quenching constant (Ksv), a Thermo-Scientific Lumina Fluorescence Spectrometer was used to conduct the flourometric measurements of 10 μM ethidium bromide (EtBr)-pretreated CT-DNA solutions in the presence of 0 to 160 μM compounds.[31],[36] The excitation wavelength was adjusted at 478 nm, and emissions ware observed at about 610 nm.

A549 cells = test: MTT cell viability assay; assay type: cell-based, human
Protocol: (§1) Cell culture growth conditions: Selected cancer cell lines from different origins, including human glioblastoma A172 (CRL-1620), LN229 (CRL-2611), U87 (HTB-14) cell lines, human cervix HeLa (ATCC, CCL-2), human breast MDA -231 (HTB-26), human prostate PC-3 (ATCC, CRL-1435), human lung A-549 (CCL-185), and non-cancer Chinese hamster ovary CHOK1 cell line (CCL61) (which was used as control) were purchased from American Type Culture Collection (ATCC, USA). These cultures were grown in Dulbecco's modified Eagle's medium-F12 (DMEM/F12, #D0547, Sigma-Aldrich) supplemented with 5% fetal bovine serum (#10500, Gibco) and 1% antibiotic-antimycotic (#15240, Gibco), and incubated at 37°C and 5% CO2. They were harvested and used for the following assays after reaching 70–80% confluency.
(§2) The used cell lines (A172, LN229, U87, HeLa, MDA-231, PC-3, A549, and CHO-K1) were harvested and seeded (6 × 10^3 cells/well) into the 96-well plates and incubated at 37°C and 5% CO2 for 24 h. After that, the synthesized Cu(II) and Pt(II) complexes, at a concentration range of 6.25 to 100 μM in DMEM-F12, were added to the cell monolayers and incubated at 37°C and 5% CO2 for 24, 48, and 72 h. The dose–response relationships of the synthesized complexes were determined by using an MTT colorimetric agent (3-[4,5-dimethylthiazol-2-yl]-2,5-diphenyltetrazolium bromide, #M5655, Sigma-Aldrich), which is reduced by the mitochondrial enzymes of the metabolically active live cells and converted into a purple formazan product. The MTT stock solution was later dissolved in a phosphate buffer solution (PBS, 5 mg/ml, w/v) and, then, 5 μg/ml of MTT in DMEM was added into each well and incubated at 37°C and 5% CO2 for 4 h. DMSO (#D 8418, Sigma-Aldrich), as a dissolving solution for formazan crystals, was added into each well and placed in a shaker for 2 h. The absorbance at a test wavelength of 570 nm and a reference wavelength of 630 nm was measured on a microplate reader.

MDA231 cells = test: MTT cell viability assay; assay type: cell-based, human
Protocol: as §1, §2

PC3 cells = test: MTT cell viability assay; assay type: cell-based, human
Protocol: as §1, §2

U87 cells [1] = test: MTT cell viability assay; assay type: cell-based, human
Protocol: as §1, §2

CHO-K1 cells = test: MTT cell viability assay (non-cancer control); assay type: cell-based, Chinese hamster
Protocol: as §1, §2

[2] = system: lung A549, cervix HeLa, and breast MD-A231 cells; test: ROS production, DCFDA assay; assay type: cell-based, human; settings: MDA-231, 6.25 to 100 μM, 24 h, vs negative control
Protocol: (§3) The reactive oxygen species (ROS) formation on the selected cell lines upon exposure to the synthesized Cu(II) and Pt(II) complexes was investigated using the oxidation-sensitive dye, 2ʹ,7ʹ-dichlorofluorescein diacetate (DCFDA, #D6883 Sigma-Aldrich). The cell lines (A172, LN229, U87, HeLa, MDA-231, PC-3, A549, and CHO-K1) were seeded (6 × 10^3 cells/well) into the 96-well plates and incubated at 37°C and 5% CO2 for 24 h. After that, the Cu(II) and Pt(II) complexes, at a concentration range of 6.25 to 100 μM, were added to the cell monolayers. Hydrogen peroxide (H2O2), at concentrations from 50 to 500 μM, was utilized as a positive control. The following day, 5 μM of DCFDA in PBS was added to the cell monolayers and, then, the plate was incubated for 30–45 min. Consequently, the fluorescence intensity was measured with 485 nm excitation and 535 nm emission wavelengths using a microplate reader. The fluorescence values of each treatment were normalized to the negative control, including only growth medium without any treatment. The assay was repeated in triplicate.

prostate PC3 cells = test: ROS production, DCFDA assay; assay type: cell-based, human; settings: 6.25 to 100 μM, 24 h
Protocol: as §3

HeLa cells = test: In vitro scratch wound healing (cell migration); assay type: cell-based, human; settings: 6.25 and 12.5 μM, 24, 48, and 72 h
Protocol: In vitro scratch wound healing experiments were carried out with HeLa cell lines (3 × 10^4 cells/insert), which were seeded into 6-well plates. When they reached 80–90% confluence, scratches were created using AutoScratch (BioTek) in a straight line. The same Cu(II) or Pt(II) complex concentrations (6.25 or 12.5 μM) were used and incubated in the presence of 5% CO2 at 37°C in a humidified incubator for 24, 48, and 72 h. Images were obtained at the beginning of the exposure (time 0), and repeated at the end of 24, 48, and 72 h incubation periods.

U87 cells [3] = test: In vitro comet assay; assay type: cell-based, human; settings: U87, 25 and 50 μM, 24 h
Protocol: Commet assay was performed with U87 and HeLa cell lines (4 × 10^4 cells/well) to detect DNA damage in the individual eukaryotic cells, where 25 or 50 μM Cu(II) or Pt(II) complexes were added to the cells and incubated for 24 h. Subsequently, the comet assay was performed as described before.[31] The DNA damage was evaluated by calculating the DNA tail percentage using the following equation: DNA tail % = 100× tailing DNA density/cell DNA density. The assay was repeated twice, and 50 individual cells were involved for each treatment.

[4] = system: A172, LN229, U87, A549, Hela, PC-3, and MDA-231 cells; test: ROS production, DCFDA assay, all used cell lines; assay type: cell-based, human; settings: all used cell lines; 6.25 to 100 μM, 24 h
Protocol: as §3

[Cl][Cu][Cl].c1ccc(-c2nc3ccc(-c4ccc5nc(-c6ccccn6)c(-c6ccccn6)nc5c4)cc3nc2-c2ccccn2)nc1 [Cu(tpbq)Cl2]
KSV (Stern–Volmer quenching constant) (EtBr-bound CT-DNA): 0.0105 | IC50 (A549 cells; A549, 24 h exposure): > 100 µM | IC50 (A549 cells; A549, 48 h exposure): > 100 µM | IC50 (A549 cells; A549, 72 h exposure): > 100 µM | IC50 (MDA231 cells; MDA231, 24 h exposure): 72.1 ± 26 µM | IC50 (MDA231 cells; MDA231, 48 h exposure): > 100 µM | IC50 (MDA231 cells; MDA231, 72 h exposure): > 100 µM | IC50 (PC3 cells; PC3, 24 h exposure): > 100 µM | IC50 (PC3 cells; PC3, 48 h exposure): > 100 µM | IC50 (PC3 cells; PC3, 72 h exposure): > 100 µM | IC50 (U87 cells [1]; U87, 24 h exposure): 79.5 ± 26.4 µM | IC50 (U87 cells [1]; U87, 48 h exposure): 5.49 ± 0.01 µM | IC50 (U87 cells [1]; U87, 72 h exposure): 13.5 ± 6.06 µM | IC50 (CHO-K1 cells; CHO-K1, 24 h exposure): > 100 µM | IC50 (CHO-K1 cells; CHO-K1, 48 h exposure): > 100 µM | IC50 (CHO-K1 cells; CHO-K1, 72 h exposure): > 100 µM

[Cl][Pt][Cl].c1csc(-c2nc3ccc(-c4ccc5nc(-c6cccs6)c(-c6cccs6)nc5c4)cc3nc2-c2cccs2)c1 [Pt(ttbq)Cl2]
KSV (Stern–Volmer quenching constant) (EtBr-bound CT-DNA): 0.0143 | IC50 (A549 cells; A549, 24 h exposure): 95 ± 2.93 µM | IC50 (A549 cells; A549, 48 h exposure): > 100 µM | IC50 (A549 cells; A549, 72 h exposure): > 100 µM | IC50 (MDA231 cells; MDA231, 24 h exposure): 85 ± 10.8 µM | IC50 (MDA231 cells; MDA231, 48 h exposure): > 100 µM | IC50 (MDA231 cells; MDA231, 72 h exposure): > 100 µM | IC50 (PC3 cells; PC3, 24 h exposure): > 100 µM | IC50 (PC3 cells; PC3, 48 h exposure): > 100 µM | IC50 (PC3 cells; PC3, 72 h exposure): > 100 µM | IC50 (U87 cells [1]; U87, 24 h exposure): > 100 µM | IC50 (U87 cells [1]; U87, 48 h exposure): 9.24 ± 4.16 µM | IC50 (U87 cells [1]; U87, 72 h exposure): 5.95 ± 1.68 µM | IC50 (CHO-K1 cells; CHO-K1, 24 h exposure): > 100 µM | IC50 (CHO-K1 cells; CHO-K1, 48 h exposure): > 100 µM | IC50 (CHO-K1 cells; CHO-K1, 72 h exposure): > 100 µM | increase of ROS production [2]: ~2 fold | ROS formation (prostate PC3 cells): no formation | migration of HeLa cells toward the scratch zone (HeLa cells): declined | genotoxicity (DNA damage, comet) (U87 cells [3]): caused DNA damage on the U87 cells at both concentrations

[Cl][Cu][Cl].c1csc(-c2nc3ccc(-c4ccc5nc(-c6cccs6)c(-c6cccs6)nc5c4)cc3nc2-c2cccs2)c1 [Cu(ttbq)Cl2]
KSV (Stern–Volmer quenching constant) (EtBr-bound CT-DNA): 0.0137 | IC50 (A549 cells; A549, 24 h exposure): 73.5 ± 1.35 µM | IC50 (A549 cells; A549, 48 h exposure): 70.7 ± 4.09 µM | IC50 (A549 cells; A549, 72 h exposure): 66.9 ± 8.7 µM | IC50 (MDA231 cells; MDA231, 24 h exposure): 20.6 ± 2.39 µM | IC50 (MDA231 cells; MDA231, 48 h exposure): 32.1 ± 1.05 µM | IC50 (MDA231 cells; MDA231, 72 h exposure): 41 ± 0.6 µM | IC50 (PC3 cells; PC3, 24 h exposure): 65.8 ± 5.35 µM | IC50 (PC3 cells; PC3, 48 h exposure): 75.5 ± 3.16 µM | IC50 (PC3 cells; PC3, 72 h exposure): 62.3 ± 4.02 µM | IC50 (U87 cells [1]; U87, 24 h exposure): 31.2 ± 0.43 µM | IC50 (U87 cells [1]; U87, 48 h exposure): 2.95 ± 0.97 µM | IC50 (U87 cells [1]; U87, 72 h exposure): 5.75 ± 0.03 µM | IC50 (CHO-K1 cells; CHO-K1, 24 h exposure): > 100 µM | IC50 (CHO-K1 cells; CHO-K1, 48 h exposure): > 100 µM | IC50 (CHO-K1 cells; CHO-K1, 72 h exposure): > 100 µM | increase of ROS production [2]: ~2 fold | ROS formation (prostate PC3 cells): no formation | ROS formation [4]: highest increase in the level of ROS formation | migration of HeLa cells toward the scratch zone (HeLa cells): declined | genotoxicity (DNA damage, comet) (U87 cells [3]): caused DNA damage on the U87 cells at both concentrations

[Cl][Pt][Cl].c1ccc(-c2nc3ccc(-c4ccc5nc(-c6ccccn6)c(-c6ccccn6)nc5c4)cc3nc2-c2ccccn2)nc1 [Pt(tpbq)Cl2]
KSV (Stern–Volmer quenching constant) (EtBr-bound CT-DNA): 0.0082 | IC50 (A549 cells; A549, 24 h exposure): > 100 µM | IC50 (A549 cells; A549, 48 h exposure): 58.4 ± 5.35 µM | IC50 (A549 cells; A549, 72 h exposure): 40.3 ± 3.42 µM | IC50 (MDA231 cells; MDA231, 24 h exposure): 94.8 ± 2.57 µM | IC50 (MDA231 cells; MDA231, 48 h exposure): > 100 µM | IC50 (MDA231 cells; MDA231, 72 h exposure): 99.4 ± 5.71 µM | IC50 (PC3 cells; PC3, 24 h exposure): > 100 µM | IC50 (PC3 cells; PC3, 48 h exposure): > 100 µM | IC50 (PC3 cells; PC3, 72 h exposure): > 100 µM | IC50 (U87 cells [1]; U87, 24 h exposure): 58.4 ± 11.8 µM | IC50 (U87 cells [1]; U87, 48 h exposure): 34.7 ± 2.16 µM | IC50 (CHO-K1 cells; CHO-K1, 24 h exposure): > 100 µM | IC50 (CHO-K1 cells; CHO-K1, 48 h exposure): 86.6 ± 1.98 µM | IC50 (CHO-K1 cells; CHO-K1, 72 h exposure): 77.5 ± 0.87 µM | ROS formation [4]: did not induce any ROS formation | migration of HeLa cells toward the scratch zone (HeLa cells): declined
